Assay results published in ChEMBL document CHEMBL5291721, “A preclinical secondary pharmacology resource illuminates target-adverse drug reaction associations of marketed drugs” (Nat Commun, 2023).

Experiments:
[1] = molecular target: T1, Alpha-1A adrenergic receptor (Homo sapiens, UniProt P35348)
T1 sequence (P35348 whole entry): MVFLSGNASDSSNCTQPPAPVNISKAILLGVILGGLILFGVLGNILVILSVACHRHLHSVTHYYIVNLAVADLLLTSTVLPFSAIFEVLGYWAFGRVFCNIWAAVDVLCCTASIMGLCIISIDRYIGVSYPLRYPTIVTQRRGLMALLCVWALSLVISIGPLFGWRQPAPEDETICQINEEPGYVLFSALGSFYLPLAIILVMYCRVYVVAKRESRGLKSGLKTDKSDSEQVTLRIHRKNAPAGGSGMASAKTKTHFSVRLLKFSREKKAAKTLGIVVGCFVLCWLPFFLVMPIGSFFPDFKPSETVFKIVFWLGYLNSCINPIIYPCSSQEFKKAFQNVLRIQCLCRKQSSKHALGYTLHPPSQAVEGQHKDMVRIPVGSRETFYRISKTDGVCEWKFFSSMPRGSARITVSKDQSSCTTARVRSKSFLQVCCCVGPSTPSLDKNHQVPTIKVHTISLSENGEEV

[2] = molecular target: D(1A) dopamine receptor (Homo sapiens, UniProt P21728)
Sequence of D(1A) dopamine receptor (P21728 whole entry): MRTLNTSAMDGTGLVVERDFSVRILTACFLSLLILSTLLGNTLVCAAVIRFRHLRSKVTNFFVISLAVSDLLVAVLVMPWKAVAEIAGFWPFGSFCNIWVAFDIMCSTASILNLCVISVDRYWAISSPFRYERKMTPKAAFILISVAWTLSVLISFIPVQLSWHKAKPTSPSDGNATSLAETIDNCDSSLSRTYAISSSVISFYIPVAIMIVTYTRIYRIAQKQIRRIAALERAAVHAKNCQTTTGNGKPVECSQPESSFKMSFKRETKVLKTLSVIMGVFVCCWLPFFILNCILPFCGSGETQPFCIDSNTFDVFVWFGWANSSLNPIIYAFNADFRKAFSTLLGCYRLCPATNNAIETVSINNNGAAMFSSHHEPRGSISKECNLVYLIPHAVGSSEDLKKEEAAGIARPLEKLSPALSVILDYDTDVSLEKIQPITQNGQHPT

[3] = molecular target: Synaptic vesicular amine transporter (Rattus norvegicus, UniProt Q01827); assay type: functional
Sequence of Synaptic vesicular amine transporter (Q01827 whole entry): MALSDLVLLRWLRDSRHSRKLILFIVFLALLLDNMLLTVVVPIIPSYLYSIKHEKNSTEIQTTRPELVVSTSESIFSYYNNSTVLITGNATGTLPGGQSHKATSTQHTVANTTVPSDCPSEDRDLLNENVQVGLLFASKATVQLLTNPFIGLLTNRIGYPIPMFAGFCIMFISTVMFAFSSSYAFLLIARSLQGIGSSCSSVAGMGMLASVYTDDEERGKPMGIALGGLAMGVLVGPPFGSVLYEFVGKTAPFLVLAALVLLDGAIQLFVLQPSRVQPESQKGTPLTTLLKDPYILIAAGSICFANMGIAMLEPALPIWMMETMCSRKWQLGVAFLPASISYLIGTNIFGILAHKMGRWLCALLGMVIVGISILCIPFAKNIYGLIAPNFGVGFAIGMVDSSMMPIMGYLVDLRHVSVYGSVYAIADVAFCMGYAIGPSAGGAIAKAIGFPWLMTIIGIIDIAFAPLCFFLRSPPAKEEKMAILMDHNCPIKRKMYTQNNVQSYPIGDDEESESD
Also: assay procedure not described here.

CC(C)(O)CNc1nc(Nc2ccnc(C(F)(F)F)c2)nc(-c2cccc(C(F)(F)F)n2)n1 [ENASIDENIB]
AC50 [1]: > 30 µM | AC50 [2]: > 30 µM | AC50 [3]: 1.8 µM

CC(C)C[C@H](NC(=O)CNC(=O)c1cc(Cl)ccc1Cl)B(O)O [IXAZOMIB]
AC50 [3]: > 30 µM
